Here are results for one compound from paper PMC8998618, “A Pharmacokinetic and Metabolism Study of the TRPC6 Inhibitor SH045 in Mice by LC-MS/MS” (International Journal of Molecular Sciences, 2022).

A short description of this data set: NADPH-dependent microsomal conversion, Michaelis-Menten kinetics (MLM). It is filed as in vitro ADME, mouse. Conditions: MLM 0.5 mg/mL protein, SH045 0.5 to 100 µM, Lineweaver-Burk. Here is the method: For determination of vmax and Michaelis-Menten constant Km of the NADPH-dependent microsomal depletion of SH045, incubations in MLM and HLM were performed. Testosterone instead of SH045 was used as positive control (Supplementary Materials SM6).
Negative controls were obtained by omission of respective components. The overall velocity (v) of degradation was calculated from altered SH045 concentration (∆c) obtained from reduction peak area ratio of SH045 as: v = ∆c/incubation time × concentration of enzyme (nmol/min × mg). Mean maximum rate vmax and Km were calculated using Lineweaver-Burk transformation. […]
The tissue binding of SH045 was analyzed exemplarily in lung, liver and kidney homogenate using ultrafiltration [5]. […] 20 µL of the mixture and the filtrate were analyzed for SH045. […]
Testosterone (10 µM in ACN/DPBS 2/3, v/v) instead of SH045 was used as positive control and analyzed by an appropriate HPLC method with UV detection.
Negative controls contained either no NADPH, no MLM or HLM or none of them. The overall velocity (v) of degradation was calculated from altered SH045 concentration (∆c) obtained from reduction peak area ratio of SH045 as: v = ∆c / incubation time × concentration of enzyme × volume (nmol/ min × mg). Mean maximum rate vmax and Michaelis-Menten constant Km were calculated using Lineweaver-Burk transformation. […]

Each structure is given as a SMILES string.

Take `C=C[C@@](C)(O)CC[C@H]1C(=C)C[C@H](OC(=O)NC)[C@H]2C(C)(C)CCC[C@]12C` [SH045, (1S,4S,4aR,8aS)-4-((S)-3-Hydroxy-3-methylpent-4-en-1-yl)-4a,8,8-trimethyl-3-methylenedecahydronaphthalen-1-yl methylcarbamate]: the vmax is recorded as 9.8 ± 0.8 nmol/min/mg. For the same compound, the Km (commonly the concentration of substrate that gives half-maximal velocity) at 10 min (mouse, mouse liver microsomes) is 48.4 ± 3.9 µM.
